Data as given in ChEMBL document CHEMBL1128314, “Absolute configuration of (+)-[fluoro(hydroxyphenylphosphinyl)methyl]-phosphonic acid, a specific inhibitor of Na(+)-gradient-dependent Na(+)-phosphate cotransport across renal brush border membrane, by X-ray crystallographic analysis of its (-)-quinine salt” (J Med Chem, 1995).
pKi: −log10 of the molar value.

Species: Rattus norvegicus
Test: The compound was tested for inhibition of Sodium-Phosphate co-transport in rat renal Brush border membrane
Format: functional

pKi: 3.44
SMILES: O=P(O)(O)C(F)P(=O)(O)c1ccccc1 (stereo unspecified)
